# Laboratory results reported in US6822100B2 (Bristol-Myers Squibb Company, priority 2001, dated 2004).
# Read-outs that look alike come from different tables or passages of the source.
# What was measured:
# [1] = biological target: T1, human serotonin transporters (Homo sapiens, UniProt P31645); assay: Serotonin Transporter Binding Assay; conditions: HEK-hSERT cell membranes, 1 nM [3H]-citalopram, Cheng and Prusoff
# T1 construct: expressed in transfected cells; host or cells: HEK-293 (HEK-hSERT), membrane homogenates
# T1 sequence (P31645 whole entry): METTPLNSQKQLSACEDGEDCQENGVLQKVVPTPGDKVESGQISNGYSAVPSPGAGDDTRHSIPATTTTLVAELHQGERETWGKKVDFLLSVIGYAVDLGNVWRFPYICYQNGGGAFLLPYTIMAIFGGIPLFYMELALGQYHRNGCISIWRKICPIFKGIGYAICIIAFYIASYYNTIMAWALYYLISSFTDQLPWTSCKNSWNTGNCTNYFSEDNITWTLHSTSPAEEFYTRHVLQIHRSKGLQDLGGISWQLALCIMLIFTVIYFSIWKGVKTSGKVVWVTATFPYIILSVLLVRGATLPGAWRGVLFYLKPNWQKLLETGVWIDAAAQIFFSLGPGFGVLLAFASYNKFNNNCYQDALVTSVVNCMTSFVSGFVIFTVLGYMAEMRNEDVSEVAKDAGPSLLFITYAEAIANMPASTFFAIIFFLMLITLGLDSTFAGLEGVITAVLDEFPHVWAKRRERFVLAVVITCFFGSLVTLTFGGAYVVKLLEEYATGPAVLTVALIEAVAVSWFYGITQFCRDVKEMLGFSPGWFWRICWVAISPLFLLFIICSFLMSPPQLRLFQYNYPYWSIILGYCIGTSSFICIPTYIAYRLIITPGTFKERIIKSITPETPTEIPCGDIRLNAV
# In short: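 Displacement of 1 nM [^3H]-citalopram (1 hr, 25° C, Tris pH 7.4 with NaCl/KCl) from membranes of HEK-293 cells stably expressing human SERT, with bound ligand read after filtration. 10 μM fluoxetine defined non-specific binding. Ki values were derived via Cheng–Prusoff from IC50 displacement-curve midpoints.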
# [2] = biological target: T2, recombinant human dopamine D2L receptors (Homo sapiens, UniProt P14416); assay: Dopamine Binding Assay; conditions: HEK-D2L cell membranes, 150 pM [3H]-spiperone, Cheng and Prusoff
# T2 construct: expressed in transfected cells; host or cells: HEK-293 (HEK-D2L), membrane homogenates
# T2 sequence (P14416 whole entry): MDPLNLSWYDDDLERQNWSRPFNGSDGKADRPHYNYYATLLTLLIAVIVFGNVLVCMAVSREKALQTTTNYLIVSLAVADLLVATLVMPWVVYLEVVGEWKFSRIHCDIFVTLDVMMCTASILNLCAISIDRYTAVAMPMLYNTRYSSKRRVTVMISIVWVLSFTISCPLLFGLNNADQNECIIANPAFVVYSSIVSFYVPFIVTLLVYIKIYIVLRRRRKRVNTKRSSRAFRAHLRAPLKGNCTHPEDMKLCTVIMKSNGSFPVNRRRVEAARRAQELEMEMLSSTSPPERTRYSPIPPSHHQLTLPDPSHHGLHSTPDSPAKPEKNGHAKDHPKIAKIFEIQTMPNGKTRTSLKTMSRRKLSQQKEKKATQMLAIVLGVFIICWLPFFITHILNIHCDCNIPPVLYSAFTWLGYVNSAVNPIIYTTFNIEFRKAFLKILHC
# In short: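 Competition binding on HEK-293 membranes stably expressing human D2L (~5 μg protein) with 150 pM [3H]-spiperone, 1.5 h at 22 °C in 50 mM Tris pH 7.4, 1 mM EDTA, 6 mM MgCl2. Filtration read-out; non-specific binding defined with 2 μM (+)butaclamol, Ki by Cheng-Prusoff.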
compound,measurement,setting,value
"CCN(CCCNC(=O)OC(C)C)C[C@@H]1C[C@H]1c1c[nH]c2ccc(F)cc12 (relative stereo) [Example 115, trans-1-[N,N-Ethyl-2-amino(isopropylcarbamoyl)propylaminomethyl]-2-[5-fluoroindol-3-yl]-cyclopropane]",Ki,[1]; read-out: SERT Ki,10 to 100 nM
same,Ki,[2],100 to 1000 nM
"N#Cc1ccc2[nH]cc([C@@H]3C[C@H]3CCCN3CCCC3)c2c1 (relative stereo) [Example 179, Trans-2-[5-cyanoindol-3-yl]-1-(3-(1-pyrrolidino)propyl)cyclopropane]",Ki,[1]; read-out: SERT Ki,10 to 100 nM
same,Ki,[2],100 to 1000 nM
"Fc1ccc2[nH]cc([C@@H]3C[C@@H]3CN3CCCC3)c2c1 (relative stereo) [Example 185, cis-1-(1-pyrrolidino)-2-[5-fluoroindol-3-yl]-cyclopropane]",Ki,[1]; SERT Ki (nM),10 to 100 nM
same,Ki,[2],> 1000 nM
"CN(C)CC1CC1c1c[nH]c2ccc(C#N)cc12 (single isomer, unassigned) [Example 117, Cis-2-[5-Cyanoindol-3-yl]-1-(N,N-dimethylaminomethyl)cyclopropane]",Ki,[1]; SERT Ki (nM),1 to 10 nM
same,Ki,[2],> 1000 nM
"CN(C)CC1CC1c1c[nH]c2ccc(F)cc12 (single isomer, unassigned) [Example 118, Cis-2-[5-Fluoroindol-3-yl]-1-(N,N-dimethylaminomethyl)cyclopropane]",Ki,[1]; SERT Ki (nM),10 to 100 nM
same,Ki,[2],> 1000 nM
"CC([C@@H]1C[C@H]1c1c[nH]c2ccc(C#N)cc12)N(C)C (single isomer, unassigned) [Example 122A, trans-3-[2-(1-Dimethylamino-ethyl)-cyclopropyl]-1H-indole-5-carbonitrile]",Ki,[1]; SERT Ki (nM),< 1 nM
same,Ki,[2],> 1000 nM
"CC([C@@H]1C[C@H]1c1c[nH]c2ccc(C#N)cc12)N(C)C (single isomer, unassigned) [Example 122B, trans-3-[2-(1-Dimethylamino-ethyl)-cyclopropyl]-1H-indole-5-carbonitrile]",Ki,[1]; SERT Ki (nM),1 to 10 nM
same,Ki,[2],> 1000 nM
"CN(C)CC1CC1c1c[nH]c2ccc(C#N)cc12 (single isomer, unassigned) [Example 129a, Cis-2-[5-Cyanoindol-3-yl]-1-(N,N-dimethylaminomethyl)cyclopropane]",Ki,[1]; SERT Ki (nM),10 to 100 nM
same,Ki,[2],> 1000 nM
"CN(C)CC1CC1c1c[nH]c2ccc(C#N)cc12 (single isomer, unassigned) [Example 129b, Cis-2-[5-Cyanoindol-3-yl]-1-(N,N-dimethylaminomethyl)cyclopropane]",Ki,[1]; SERT Ki (nM),1 to 10 nM
same,Ki,[2],> 1000 nM
"CN(C)CC1CC1c1c[nH]c2ccc(F)cc12 (single isomer, unassigned) [Example 130a, Cis-2-[5-Fluoroindol-3-yl]-1-(N,N-dimethylaminomethyl)cyclopropane]",Ki,[1]; SERT Ki (nM),100 to 1000 nM
same,Ki,[2],> 1000 nM
"CN(C)CC1CC1c1c[nH]c2ccc(F)cc12 (single isomer, unassigned) [Example 130b, Cis-2-[5-Fluoroindol-3-yl]-1-(N,N-dimethylaminomethyl)cyclopropane]",Ki,[1]; SERT Ki (nM),1 to 10 nM
same,Ki,[2],> 1000 nM
"CN(C)C[C@@H]1C[C@H]1Cc1c[nH]c2ccc(F)cc12 (single isomer, unassigned) [Example 148, (+)-[2-(5-Fluoro-1H-indol-3-ylmethyl)-cyclopropylmethyl]-dimethylamine]",Ki,[1]; read-out: SERT Ki,10 to 100 nM
same,Ki,[2],100 to 1000 nM
"CN(C)C[C@@H]1C[C@H]1Cc1c[nH]c2ccc(F)cc12 (single isomer, unassigned) [Example 149, (−)-[2-(5-Fluoro-1H-indol-3-ylmethyl)-cyclopropylmethyl]-dimethylamine]",Ki,[1]; read-out: SERT Ki,1 to 10 nM
same,Ki,[2],100 to 1000 nM
"CN(C)CC1CC1c1csc2ccccc12 (single isomer, unassigned; (+)) [Example 190B, (+)-(2-Benzo[b]thiophen-3-yl-cyclopropylmethyl)-dimethyl-amine]",Ki,[1]; read-out: SERT Ki,10 to 100 nM
same,Ki,[2],> 1000 nM
"CN(C)C[C@H]1C[C@@H]1c1c[nH]c2ccc(C#N)cc12 [Example 5, (1S,2S)-trans-2-[5-cyanoindol-3-yl]-1-(N,N-dimethylaminomethyl)-cyclopropane]",Ki,[1]; SERT Ki (nM),< 1 nM
same,Ki,[2],> 1000 nM
"N#Cc1ccc2[nH]cc(C3CC3CNCc3cccc(F)c3)c2c1 (stereo not drawn) [Example 12, trans-2-[5-Cyanoindol-3-yl]-1-[N-(3-fluorobenzyl)aminomethyl]-cyclopropane]",Ki,[1]; read-out: SERT Ki,1 to 10 nM
same,Ki,[2],100 to 1000 nM
"N#Cc1ccc2[nH]cc(C3CC3CNCc3ccc(F)cc3)c2c1 (stereo not drawn) [Example 13, trans-2-[5-Cyanoindol-3-yl]-1-[N-(4-fluorobenzyl)aminomethyl]-cyclopropane]",Ki,[1]; read-out: SERT Ki,1 to 10 nM
same,Ki,[2],100 to 1000 nM
"N#Cc1ccc2[nH]cc(C3CC3CNCc3ccccn3)c2c1 (stereo not drawn) [Example 14, trans-2-[5-Cyanoindol-3-yl]-1-[N-(2-pyridylmethyl)aminomethyl]-cyclopropane]",Ki,[1]; read-out: SERT Ki,10 to 100 nM
same,Ki,[2],100 to 1000 nM
"N#Cc1ccc2[nH]cc(C3CC3CNCc3cccnc3)c2c1 (stereo not drawn) [Example 15, trans-2-[5-Cyanoindol-3-yl]-1-[N-(3-pyridyl)methylaminomethyl]-cyclopropane]",Ki,[1]; read-out: SERT Ki,10 to 100 nM
same,Ki,[2],100 to 1000 nM
"N#Cc1ccc2[nH]cc(C3CC3CNCc3ccncc3)c2c1 (stereo not drawn) [Example 16, trans-2-[5-Cyanoindol-3-yl]-1-[N-(4-pyridyl)methylaminomethyl]-cyclopropane]",Ki,[1]; read-out: SERT Ki,10 to 100 nM
same,Ki,[2],100 to 1000 nM
"N#Cc1ccc2[nH]cc(C3CC3CNCCCc3ccccc3)c2c1 (stereo not drawn) [Example 21, trans-2-[5-Cyanoindol-3-yl]-1-[N-3-phenylpropylaminomethyl]-cyclopropane]",Ki,[1]; read-out: SERT Ki,1 to 10 nM
same,Ki,[2],10 to 100 nM
"N#Cc1ccc2[nH]cc(C3CC3CNCCCc3cccnc3)c2c1 (stereo not drawn) [Example 22, trans-2-[5-Cyanoindol-3-yl]-1-[N-3-(3-pyridyl)propylaminomethyl]-cyclopropane]",Ki,[1]; read-out: SERT Ki,1 to 10 nM
same,Ki,[2],100 to 1000 nM
"N#Cc1ccc2[nH]cc(C3CC3CNCCCn3ccnc3)c2c1 (stereo not drawn) [Example 24, trans-2-[5-Cyanoindol-3-yl]-1-[N-3-(1-imidazolyl)propylaminomethyl]-cyclopropane]",Ki,[1]; read-out: SERT Ki,10 to 100 nM
same,Ki,[2],100 to 1000 nM
"N#Cc1ccc2[nH]cc(C3CC3CNCCc3cccs3)c2c1 (stereo not drawn) [Example 26, trans-2-[5-Cyanoindol-3-yl]-1-[N-2-(2-thiopheneyl)ethylaminomethyl]-cyclopropane]",Ki,[1]; read-out: SERT Ki,1 to 10 nM
same,Ki,[2],10 to 100 nM
"N#Cc1ccc2[nH]cc(C3CC3CNCC3CC3)c2c1 (stereo not drawn) [Example 28, trans-2-[5-Cyanoindol-3-yl]-1-[N-cyclopropylmethylaminomethyl]-cyclopropane]",Ki,[1]; SERT Ki (nM),10 to 100 nM
same,Ki,[2],> 1000 nM
"N#Cc1ccc2[nH]cc(C3CC3CNCC3CCCCC3)c2c1 (stereo not drawn) [Example 30, trans-2-[5-Cyanoindol-3-yl]-1-[N-cyclohexylmethylaminomethyl]-cyclopropane]",Ki,[1]; read-out: SERT Ki,1 to 10 nM
same,Ki,[2],10 to 100 nM
"CC(C)CNCC1CC1c1c[nH]c2ccc(C#N)cc12 (stereo not drawn) [Example 31, trans-2-[5-Cyanoindol-3-yl]-1-[N-isobutylaminomethyl]-cyclopropane]",Ki,[1]; read-out: SERT Ki,10 to 100 nM
same,Ki,[2],10 to 100 nM
"CC(C)CCNCC1CC1c1c[nH]c2ccc(C#N)cc12 (stereo not drawn) [Example 32, trans-2-[5-Cyanoindol-3-yl]-1-[N-3-methyl-butylaminomethyl]-cyclopropane]",Ki,[1]; read-out: SERT Ki,10 to 100 nM
same,Ki,[2],10 to 100 nM
"CC1CCN(CC2CC2c2c[nH]c3ccc(C#N)cc23)CC1 (stereo not drawn) [Example 33, trans-2-[5-Cyanoindol-3-yl]-1-(4-methyl-piperidin-1-yl-methyl)-cyclopropane]",Ki,[1]; read-out: SERT Ki,10 to 100 nM
same,Ki,[2],100 to 1000 nM
"N#Cc1ccc2[nH]cc(C3CC3CN3CCC(Cc4ccccc4)CC3)c2c1 (stereo not drawn) [Example 34, trans-1-(4-Benzyl-piperidin-1-ylmethyl)-2-[5-cyanoindol-3-yl]-cyclopropane]",Ki,[1]; read-out: SERT Ki,1 to 10 nM
same,Ki,[2],1 to 10 nM
"N#Cc1ccc2[nH]cc(C3CC3CN3CCNCC3)c2c1 (stereo not drawn) [Example 35, trans-2-[5-Cyanoindol-3-yl]-1-(piperazin-1-yl-methyl)-cyclopropane]",Ki,[1]; SERT Ki (nM),1 to 10 nM
same,Ki,[2],> 1000 nM
"N#Cc1ccc2[nH]cc(C3CC3CN3CCN(Cc4ccccc4)CC3)c2c1 (stereo not drawn) [Example 36, trans-1-[4-Benzyl-piperazin-1-yl-methyl]-2-[5-cyanoindol-3-yl]-cyclopropane]",Ki,[1]; read-out: SERT Ki,10 to 100 nM
same,Ki,[2],10 to 100 nM
"CCCN(CCC)CC1CC1c1c[nH]c2ccc(C#N)cc12 (stereo not drawn) [Example 38, trans-2-[5-Cyanoindol-3-yl]-1-[N,N-dipropylaminomethyl]-cyclopropane]",Ki,[1]; SERT Ki (nM),1 to 10 nM
same,Ki,[2],> 1000 nM
"N#Cc1ccc2[nH]cc(C3CC3CN3CCCC3)c2c1 (stereo not drawn) [Example 46, trans-2-[5-Cyanoindol-3-yl]-1-[pyrrolidin-1-yl-methyl]-cyclopropane]",Ki,[1]; read-out: SERT Ki,1 to 10 nM
same,Ki,[2],100 to 1000 nM
"N#Cc1ccc2[nH]cc(C3CC3CN3CCCCC3)c2c1 (stereo not drawn) [Example 47, trans-2-[5-Cyanoindol-3-yl]-1-[piperidin-1-yl-methyl]-cyclopropane]",Ki,[1]; read-out: SERT Ki,10 to 100 nM
same,Ki,[2],100 to 1000 nM
"COc1ccccc1CNCC1CC1c1c[nH]c2ccc(F)cc12 (stereo not drawn) [Example 50, trans-2-[5-Fluoroindol-3-yl]-1-[N-(2-methoxybenzyl)aminomethyl]-cyclopropane]",Ki,[1]; read-out: SERT Ki,1 to 10 nM
same,Ki,[2],10 to 100 nM
"COc1cccc(CNCC2CC2c2c[nH]c3ccc(F)cc23)c1 (stereo not drawn) [Example 51, trans-2-[5-Fluoroindol-3-yl]-1-[N-(3-methoxybenzyl)aminomethyl]-cyclopropane]",Ki,[1]; read-out: SERT Ki,1 to 10 nM
same,Ki,[2],100 to 1000 nM
